Reference: article PMC3271139 (Nature, 2012)

Experiments:
[1] = target: T1, truncated, His-tagged human CYP17A1 (Homo sapiens, UniProt P05093, C22K/P23T/R20A/R21K); experiment: UV/vis spectral shift ligand binding assay
T1 sequence (P05093 with tags, fused parts or gaps limits assumed): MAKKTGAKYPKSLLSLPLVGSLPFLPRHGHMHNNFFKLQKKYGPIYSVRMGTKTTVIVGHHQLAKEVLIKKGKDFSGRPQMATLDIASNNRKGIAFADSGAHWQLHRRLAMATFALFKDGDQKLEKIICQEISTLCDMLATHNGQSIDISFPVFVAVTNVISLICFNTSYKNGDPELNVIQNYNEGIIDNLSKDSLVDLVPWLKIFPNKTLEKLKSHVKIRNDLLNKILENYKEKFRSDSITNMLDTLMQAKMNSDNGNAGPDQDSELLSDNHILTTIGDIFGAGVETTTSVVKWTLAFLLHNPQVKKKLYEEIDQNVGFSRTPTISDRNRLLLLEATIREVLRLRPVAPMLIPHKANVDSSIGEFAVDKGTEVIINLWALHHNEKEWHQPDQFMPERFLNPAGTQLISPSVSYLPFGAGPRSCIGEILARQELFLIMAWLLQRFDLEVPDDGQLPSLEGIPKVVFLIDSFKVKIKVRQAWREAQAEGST

truncated human CYP17A1 = target: T2, truncated human CYP17A1 (Homo sapiens, UniProt P05093, C22K/P23T/R20A/R21K); experiment: Progesterone 17α-hydroxylation, HPLC separation with UV detection; assay type: biochemical
T2 sequence (P05093 with tags, fused parts or gaps limits assumed): T1 sequence (P05093 with tags, fused parts or gaps limits assumed)

| Kd [1] | IC50 (truncated human CYP17A1) | Compound |
| --- | --- | --- |
| 229 ± 14 nM |  | CC(=O)[C@H]1CC[C@H]2[C@@H]3CCC4=CC(=O)CC[C@]4(C)[C@H]3CC[C@]12C [progesterone] |
| < 100 nM | 201 ± 1 nM | C[C@]12CC[C@H](O)CC1=CC[C@@H]1[C@@H]2CC[C@]2(C)C(c3cccnc3)=CC[C@@H]12 [abiraterone, 17-(3-pyridyl)androsta-5,16-dien-3β-ol] |
| < 100 nM | 503 ± 1 nM | C[C@]12CC[C@H](O)CC1=CC[C@@H]1[C@@H]2CC[C@]2(C)C(n3cnc4ccccc43)=CC[C@@H]12 [TOK-001, 3β-hydroxy-17-(1H-benzimidazole-1-yl)androsta-5,16-diene] |
